The test system of one series is liver. The series can be described thus: Peroxisome proliferator induced liver transduction by beta galactosidase vector, XGAL staining. Format: in vivo, Balb/C mice.
The test system of a further series is CT26 cells. The series can be described thus: Effect of ganciclovir on unmodified CT26 cells, cell counts. Format: cell-based, mouse. The source says: (§1) One plate of each cell type was left untreated.
The test system of the next series is CT26 beta-gal cells. Kind of series: Effect of ganciclovir on CT26 beta-gal cells, cell counts. Format: cell-based, mouse.
Text: as §1

Series [1] deals with CT26TK Neo. The series can be described thus: Ganciclovir dose study in mice injected with CT26TK Neo cells (tumor regression). Format: in vivo. As to the method: In order to test whether in vivo transduction of a murine tumor could be used to treat the disease, an experiment was performed to determine the optimal concentration of ganciclovir necessary to eliminate a tumor that was transduced and selected in vitro to assure 100% transduction. Twelve groups of 3 mice each are injected with 2×10^5 CT26TK Neo cells. Six groups of mice are injected with these cells intraperitoneally (I.P.) and six groups of mice are injected subcutaneously (S.C.). Two other groups of 3 mice each are injected with 2×10^5 unmodified CT26 cells (as a control) either I.P. or S.C.
Ten days after the injection of the CT26 or CT26TK Neo cells into these groups of mice, several concentrations of ganciclovir treatment are initiated. Each dose regimen consists of 2 daily AM and PM I.P. injections of ganciclovir.
Tumor measurements were made for 23 days FIG. 11). CT26TK Neo grew only slightly slower than unmodified CT26 in the absence of ganciclovir. […] After 24 days, the I.P. injected animals were sacrificed and evaluated. The optimal concentration for anti-tumor effect was similar whether the tumor was grown I.P. or S.C.

Series [2] in a line: Ganciclovir toxicity in the mouse dose study. In kind it is in vivo, mice.
The subject of another series is CT26. The series can be described thus: Ganciclovir on in vivo tumor growth of unmodified CT26. Further details: species or system mice. As to conditions: 62.5 mg/Kg I.P. twice daily, S.C. tumor. On the procedure: (§2) In order to determine whether ganciclovir has an effect on the growth of unmodified CT26 tumor cells in vivo, 2 groups of 7 mice are injected S.C. with 2×10^5 unmodified CT26 cells and 2 groups of 7 mice are injected S.C. with 2×10^5 CT26TK Neo cells. Seven days after tumor implantation, one group of CT26 injected mice and one group of CT26TK Neo injected mice are placed on a twice daily (AM and PM) regimen of I.P. ganciclovir at 62.5 mg/Kg. These mice are treated for 12 days or until the CT26TK Neo injected animals have no detectable tumor burden. Tumor growth is monitored over a three week period.

Series [3] relates to CT26TK Neo. Kind of series: Ganciclovir on in vivo tumor growth of CT26TK Neo. Details: species or system mice. As to conditions: 62.5 mg/Kg I.P. twice daily, S.C. tumor. On the procedure: as §2
The subject of a further series is CT26TK Neo cells. Kind of series: Effect of ganciclovir on CT26TK Neo cells (TK-3 transduced), cell counts. As to conditions: lowest dose 6.25 μg/ml, twice per day for four consecutive days.
In the next series the test system is hepatitis B. Conditions: cited from earlier work.
Another series concerns hepatitis C. As to conditions: six months after termination of treatment; cited from earlier work.
Another series deals with hepatitis D. Conditions: cited from earlier work.
The mark [4] stands for this setting: 6.25 μg/ml or 12.5 μg/ml, twice per day for four days.

Where two headings read alike, the source gives them in different places.

Procedure for liver: On day 4, 200 ul beta galactosidase retroviral vector (1E9 cfu/ml, DA-Bengal) was injected via tail vein. On day 7, the mice were sacrificed, tissues were fixed in 2% formaldehyde/PBS for 24 hr, and blocked into slices of 2-5 mm. Sections were rinsed in PBS and stained in fresh XGAL solution (5 mM potassium ferricyanide/5 mM potassium ferrocyanide/2 mM MgCl2/0.5mg/ml XGAL in DMF (Gold Scientific)/1×PBS). Tissue was embedded in paraffin (−50 degrees), sectioned at 5 microns (PML, San Diego), and counterstained with Hematoxylin/Eosin.

On to `Cc1cccc(Nc2cc(Cl)nc(SCC(=O)O)n2)c1C` [WY 14643], for which the “blue cells in liver (background staining)” value with liver (WY liver: mitogen, no vector) is given as “No blue cells”. Also, the “blue cells in liver, periportally and on the periphery” value with liver (group I: IP 500 μl of 15 mg/ml once per day for 4 days plus beta galactosidase vector) and in the series with liver (group II: gavage 200 μl of 15 mg/ml once per day for 4 days plus beta galactosidase vector) was “Numerous blue cells” in each case.
Consider `Nc1nc(O)c2ncn(COC(CO)CO)c2n1` [ganciclovir], for which the “effect on cell growth” value in the series with CT26 cells (setting [4]) is recorded as “did not have an effect”; in the series with CT26 cells (beginning at 25 ug/ml), “dose-dependent decrease in cell growth”; in the series with CT26 beta-gal cells (setting [4]), “did not have an effect”; in the series on CT26 beta-gal cells (beginning at 25 ug/ml) it was “dose-dependent decrease in cell growth”. The tumor regression result is recorded as “Little or no effect” in the series with CT26TK Neo [1] (15.63 mg/Kg, compared to untreated control groups); “Partial tumor regression” in the series on CT26TK Neo [1] (31.25 mg/Kg); “Complete tumor regression” with CT26TK Neo [1] (62.5 mg/Kg regimen, 2 daily I.P. injections). In addition, the tolerability entry in series [2] (15.63 mg/Kg, 31.25 mg/Kg and 62.5 mg/Kg groups, treated for an additional 7 days) is listed as “able to tolerate the treatment”. Further, in series [2] (62.5 mg/Kg groups), the toxicity observed result is “not life threatening and reversible”. Also, in series [2] (125 mg/Kg, 250 mg/Kg and 500 mg/Kg groups, 2 daily I.P. injections, after 5 days), the “survival (toxic effects)” value is listed as “dead due to the toxic effects”. For the same compound, the “tumor size versus untreated mice” value in the series with CT26 is on record as “somewhat smaller”. Also, the tumor burden entry in the series with CT26TK Neo [3] was “dramatic decrease in tumor burden”. For the same compound, in the series on CT26TK Neo cells, the “cytotoxic effect on CT26 TKneo cells” value was “dramatic cytotoxic effect”.
For alpha interferon, the “patients responding to treatment” value in the series with hepatitis B (patients infected as adults) is reported as “about 35%”; in the series on hepatitis B (perinatal infectees) it was “about 10%”. Moreover, the responders relapsed entry in the series with hepatitis C is reported as “half”; with hepatitis D (in vivo), 85-90%. Moreover, the “patients responding to therapy” value in the series with hepatitis D (pilot studies) is 25-60%.

These data come from US6818439B1, “Methods for administration of recombinant gene delivery vehicles for treatment of hemophilia and other disorders” (priority 1994, dated 2004).
